Target: T1, human MCR5 receptor (Homo sapiens, UniProt P33032)
T1 construct: expressed in transfected cells
Assay: MCR5 standard functional assay (Protocol D): CHO-K1-MC5R-CRE-β-lactamase reporter
Assay type: cell-based
Conditions: for EC50: Protocol D
Source text: These cell lines were engineered using protocols akin to those outlined by Zaccolo et al (Zaccolo, M., (2000) Nature, 2(1); 25-29). Compound-induced activation of the MCR5 or MCR4 receptors in these two cell lines stimulated the production, and intracellular accumulation, of the enzyme β-lactamase. The quantity of β-lactamase enzyme produced was directly proportional to the degree to which the test compound activated the MCR5 or MCR4 receptors present on these cells and was quantified using the P-lactamase gene reporter analysis kit that is commercially available from Invitrogen Life Technologies. An in-depth description of this technology and assay protocols are available from the Invitrogen web site (www.invitrogen.com). The protocol listed below provides a summary of that assay methodology. The quantity of β-lactamase enzyme produced by compound-induced activation of the MCR5 or MCR4 receptors expressed in these cell lines was quantified using a LjI Biosystems Analyst™ HT 96.384 plate reader set to excite at a wave length of 405 nm, and measure the energy emitted at wave lengths of 450 nm and 530 nm. Cellular responses were quantified by dividing the measured energy emitted at a wavelength of 450 nm by the measured energy emitted at a wavelength of 530 nm. […] CCF4-AM was dissolved in 100% DMSO to give a final solution concentration of 1 mM. This solution was termed Solution A. Probenecid was dissolved in 200 mM NaOH to give a final solution concentration of 200 mM. This solution was termed Solution D. Composition of the β-lactamase assay dye solution: for 1072 μL of assay dye solution combine: 12 μL of Solution A, 60 μL of Solution B, 925 μL of Solution C and 75 μL of Solution D. […] Cells were grown in T225 vent cap flasks containing 50 ml of growth medium and maintained in a cell incubator at a temperature of 37° C. and in an environment containing 5% CO2. The composition of the growth medium for the CHO-K1-MC5R-CRE-β-lactamase was 90% v/v DMEM supplemented with; Glutamax-1, 25 mM HEPES, 10% v/v foetal calf serum (FCS), 1 mM sodium pyruvate, 0.1 mM non essential amino acids and 800 μg/ml genetic in. For the CHO-K1-MC4R-CRE-β-lactamase this growth media was further supplemented with […] Zeocin. Cells were harvested when they reached 80-90% confluency by first removing the existing growth medium and then washing with PBS that had been pre-warmed to a temperature of 37° C. This PBS was then removed and 5 ml of cell dissociation fluid added to the flask. These cells were incubated for 5 minutes in a cell incubator set at a temperature of 37° C. and in an environment containing 5% CO2 to detach the cells. When cells were detached, pre-warmed growth media was added, the cells re-suspended and mixed gently to achieve a single cell suspension by pipetting. This cell suspension was then used for experimentation, or transferred into a new T225 flask to perpetuate the cell culture. On the first day of the assay cells were harvested as described above. […] For each assay the cell plates were then retuned to a cell incubator maintained at a temperature of 37° C. and in an environment containing 5% CO2 overnight before performing the assay on the second assay day. […] For the MCR4 improved functional assay methodology the solution of cyclohexamide was not added. Subsequently, 10 μL of the test compound solution was transferred to the assay plate. […] After this incubation period the plate was removed from the incubator, 10 μL of the […] assay dye solution was added to each well and then the plate returned to the cell incubator.

T1 sequence (P33032 whole entry): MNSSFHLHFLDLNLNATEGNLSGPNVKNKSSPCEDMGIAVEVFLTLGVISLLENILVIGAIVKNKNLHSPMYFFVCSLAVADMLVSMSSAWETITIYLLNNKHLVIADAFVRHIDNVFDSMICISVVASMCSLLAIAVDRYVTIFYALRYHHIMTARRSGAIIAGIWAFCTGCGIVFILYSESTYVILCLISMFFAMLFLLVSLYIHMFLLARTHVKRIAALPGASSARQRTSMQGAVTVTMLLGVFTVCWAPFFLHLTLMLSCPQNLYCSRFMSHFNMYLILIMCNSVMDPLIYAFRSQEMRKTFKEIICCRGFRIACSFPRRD

Row | Structure (SMILES) | Selectivity MCR5/MCR4 (Table 5, MCR4 by Protocol C) | EC50 (Table 5) | Selectivity MCR5/MCR4 (Table 6, MCR4 by Protocol E) | EC50 (Table 6)
1 | C[C@@H]1CN(C(=O)[C@@H]2CN(C(C)(C)C)C[C@H]2c2ccc(F)cc2F)C[C@H](C)[C@@]1(O)c1ccccc1 [Example 1, (3R,4R,5S)-1-{[(3S,4R)-1-tert-Butyl-4-(24-difluorophenyl)pyrrolidin-3-yl]carbonyl}-3,5-dimethyl-4-phenylpiperidin-4-ol] | 268 | 6.71 µM | 285 | –
2 | C[C@@H]1CN(C(=O)[C@@H]2CN(C(C)(C)C)C[C@H]2c2ccc(F)cc2F)C[C@H](C)[C@@]1(O)c1ccccc1.Cl [Example 5, (3R,4R,5S)-1-{[(3S,4R)-1-tert-Butyl-4-(2,4-difluorophenyl)pyrrolidin-3-yl]carbonyl}-3,5-dimethyl-4-phenylpiperidin-4-ol hydrochloride] | – | – | 285 | 2.74 µM
3 | CC(C)N1C[C@@H](C(=O)N2C[C@@H](C)[C@](O)(c3ccccc3)[C@@H](C)C2)[C@H](c2ccc(F)cc2F)C1.Cl [Example 6, (3R,4R,5S)-1-{[(3S,4R)-4-(2,4-Difluorophenyl)-1-isopropylpyrrolidin-3-yl]carbonyl}-3,5-dimethyl-4-phenylpiperidin-4-ol hydrochloride] | – | – | 83 | 1.59 µM
4 | C[C@@H]1CN(C(=O)[C@@H]2CNC[C@H]2c2ccc(F)cc2F)C[C@H](C)[C@@]1(O)c1ccc(F)cc1.Cl [Example 12, (3R,4R,5S)-1-{[(3S,4R)-4-(2,4-difluorophenyl)pyrrolidin-3-yl]carbonyl}-4-(4-fluorophenyl)-3,5-dimethylpiperidin-4-ol hydrochloride] | – | – | 267 | 20 µM
5 | C[C@@H]1CN(C(=O)[C@@H]2CN(C(C)(C)C)C[C@H]2c2ccc(F)cc2F)C[C@H](C)[C@@]1(O)c1ccc(Cl)cc1.Cl [Example 13, (3R,4R,5S)-1-{[(3S,4R)-1-tert-butyl-4-(2,4-difluorophenyl)pyrrolidin-3-yl]carbonyl}-4-(4-chlorophenyl)-3,5-dimethylpiperidin-4-ol hydrochloride] | – | – | 624 | 16.9 µM
6 | C[C@@H]1CN(C(=O)[C@@H]2CN(c3ccccn3)C[C@H]2c2ccc(F)cc2F)C[C@H](C)[C@@]1(O)c1ccccc1.Cl [Example 31, (3R,4R,5S)-1-{[(3S,4R)-4-(2,4-difluorophenyl)-1-pyridin-2-ylpyrrolidin-3-yl]carbonyl}-3,5-dimethyl-4-phenylpiperidin-4-ol hydrochloride] | – | – | 266 | 0.956 µM
7 | C[C@@H]1CN(C(=O)[C@@H]2CN(c3cccnn3)C[C@H]2c2ccc(F)cc2F)C[C@H](C)[C@@]1(O)c1ccccc1.Cl [Example 35, (3R,4R,5S)-1-{[(3S,4R)-4-(2,4-difluorophenyl)-1-pyridazin-3-ylpyrrolidin-3-yl]carbonyl}-3,5-dimethyl-4-phenylpiperidin-4-ol hydrochloride] | – | – | 13,333 | 20 µM
